This is an account of results in patent publication US12509439B2, “Anti-malarial agents” (UNIVERSITY OF KENTUCKY RESEARCH FOUNDATION, priority 2020, dated 2025).

Some results are limits rather than exact numbers.

The subject of data set [1] is Plasmodium falciparum (3D7). The data set can be described thus: In-vitro potency against P. falciparum (3D7 strain), SYBR Green growth inhibition. Type of data set: cell-based. To be noted: P. falciparum 3D7, asexual intraerythrocytic stage, SYBR Green fluorescence. As to the method: Cultures of the widely-used malaria reference strain of chloroquine-sensitive Plasmodium falciparum (3D7) were maintained in a 1.25% suspension of human red blood cells cultured in RPMI 1640 medium (pH 7.3) supplemented with 0.5% Albumax II (Gibco Life Technologies, San Diego, CA), 12 mM sodium bicarbonate, 0.2 mM hypoxanthine, and 20 mg/L gentamicin at 37° C., in an atmosphere of 1% O2, 3% CO2 with a balance of nitrogen (Human malaria parasites in continuous culture. Trager W et al., 1976, Science, 193: 673-675). Growth inhibition was quantified using a fluorescence assay utilising the binding of SYBR Green (Novel, rapid, and inexpensive cell-based quantification of antimalarial drug efficacy. Bennett T. N. et al., 2004, Antimicrob. Agents Chemother., 48: 1807-1810) to double stranded DNA, which emits a fluorescent signal at 528 nm after excitation at 485 nm. Mefloquine was used as a drug control to monitor the quality of the assay (Z′=0.6 to 0.8, where Z′ is a measure of the discrimination between the positive and negative controls on a screen plate). Hits were confirmed by full-potency curves with dose-response curves determined from a minimum of 3 independent experiments. Compound bioactivity was expressed as EC50, the effective concentration of compound causing 50% parasite death. All data were processed using IDBS ActivityBase. Raw data was converted into percent inhibition through linear regression by setting the high inhibition control as 100% and the no inhibition control as 0%. Quality control criteria for passing plates were as follows: z′>0.5, S:B>3, % CV(no inhibition control)<15. The formula used to calculate z′ is
Curve fitting was carried out using the following 4 parametric equation:
where A=% inhibition at bottom, B=% inhibition at top, C=EC50, D=slope, x=inhibitor concentration and y=% inhibition. If curve definition was poor, B was fixed to 100.

Data set [2] is described as follows: Hepatocyte intrinsic clearance, cryopreserved human hepatocytes. Type of data set: in vitro ADME. To be noted: cryopreserved human hepatocytes in suspension (pooled), 60 min. The procedure:
The compounds of the invention (3 μM) were incubated in suspension with cryopreserved human (rat or mouse) hepatocytes pooled from multiple donors (>10) and samples taken at 6 time points over the course of a 60 min experiment and analysed by LC MS/MS. Williams E media supplemented with 2 mM L-glutamine and 25 mM HEPES and test compound (final substrate concentration 3 μM; final DMSO concentration 0.25%) were pre-incubated at 37° C. prior to the addition of a suspension of cryopreserved hepatocytes (final cell density 0.5×10^6 viable cells/mL in Williams E media supplemented with 2 mM L glutamine and 25 mM HEPES) to initiate the reaction. The final incubation volume is 500 μL. The reactions are stopped by transferring aliquots of incubate into acetonitrile at the appropriate time points, in a 1:2 ratio. The termination plates are centrifuged at 3,000 rpm for 20 min at 4° C. to precipitate the protein. Following protein precipitation, the sample supernatants were combined in cassettes of up to 4 compounds, internal standard was added and analysed by LC MS/MS. From a plot of ln peak area ratio (compound peak area/internal standard peak area) against time, the gradient of the line was determined. Subsequently, half-life (t½) and intrinsic clearance (CLint) were calculated using the equations below: Elimination rate constant (k)=(−gradient) Half-life (t½) (min)=0.693/k Intrinsic clearance (i.e. CLint) (μL/min/million cells)=V×0.693/t1/2
where V=Incubation volume (μL)/Number of cells
Verapamil and umbelliferone were included in the assay as controls and if the values for these compounds are not within the specified limits the results were rejected and the experiment repeated.

Data set [3] can be described thus: PK parameters in rat (IV and PO). Type of data set: in vivo. To be noted: for PK parameters (rat): F: 1 mg/kg IV and 3 mg/kg PO; for clearance / half-life: Sprague Dawley, plasma, IV arm, 1 mg/kg; for clearance: read-out: PK parameters (rat): Cl; for half-life: read-out: PK parameters (rat): t1/2. As to the method:
Swiss Albino male mice or Sprague Dawley rats (TCGLS, India) were kept under a 12/12 h light/dark cycle, 22±2° C. temp, 50±20% RH with free access to food and water ad libitum. Mice were selected randomly/based on body weight/age and fasted for 4 h before dosing and until 2 h after dosing. Three mice were used per route of administration. For IV determination (1 mg/kg, dose volume 5 ml/kg) the dose was administered by injection into the lateral tail vein (rats are anaesthetized using 3% v/v isoflurane: oxygen mixture). For PO determination (3 mg/kg, dose volume 10 ml/kg) the dose was administered by oral gavage in conscious animals.
Blood samples were taken (mice 50 μL, rat 100 μL) at regular timepoints from the saphenous vein (conscious restrained animals) and collected into heparinized capillary tubes and transferred into 0.5 mL microcentrifuge tubes. Samples were processed by centrifugation at 1640 g for 10 min at +4° C. within 30 min of collection and stored at −20° C. until bioanalysis. All samples were mixed with ice-cold acetonitrile containing an internal standard, centrifuged at 4000 rpm for 15 min at 15° C. Supernatant was then half diluted in water and analysed by LCMS/MS analysis to determine analyte peak area/IS peak area (the ratio). Concentration (plasma) of the compounds of the invention was determined by reference to a calibration curve. Pharmacokinetic parameters (Cmax, Tmax, AUC, t1/2, CL, Vd, BA) were calculated using WinNonLin, using non-compartmental analysis (Phoenix, Version 6.3). The pharmacokinetic parameters for compounds shown in Table 2 support that compounds of the invention have pharmacokinetic properties associated with treatment of malaria via the oral route and that compounds have substantially longer half-lives than the reference compound.

A word on the EC50: it is the concentration needed to bring the measured effect to its halfway point. Lower therefore signals an effect from little substance. The term hepatocyte CLint denotes a measure of how fast metabolising enzymes remove a compound, apart from limits set by blood flow. Lower therefore signals greater metabolic stability. In turn, `N#Cc1cc(NC(=O)[C@H]2c3ccccc3C(=O)N(CC(F)(F)F)[C@@H]2c2ccc(OC3CC3)nc2)ccc1F` (single isomer, unassigned) [(1a)] gave an EC50 in data set [1] of 19 nM. The compound also displayed a hepatocyte CLint at 3 μM in data set [2] of less than 3 µL/min/1e6 cells. Moreover, in data set [3], the “PK parameters (rat): F” value is recorded as “F = 107%”, the clearance came to 1 mL/min/kg and the half-life came to 26 h.
Compound `N#Cc1cc(NC(=O)[C@H]2c3ccccc3C(=O)N(CC(F)(F)F)[C@@H]2c2cnc(C(F)(F)F)nc2)ccc1F` [(9a), (3S,4S)—N-(3-cyano-4-fluorophenyl)-1-oxo-2-(2,2,2-trifluoroethyl)-3-(2-(trifluoromethyl)pyrimidin-5-yl)-1,2,3,4-tetrahydroisoquinoline-4-carboxamide] displayed an EC50 in data set [1] of 103 nM. In data set [2], this compound returned an intrinsic clearance (hepatocyte CLint) at 3 μM of less than 3 µL/min/1e6 cells. Moreover, in data set [3], the “PK parameters (rat): F” value was “F = 65%”, the clearance came to 1.33 mL/min/kg and the half-life amounted to 22 h.
Taken in the same sequence, the figures for `N#Cc1cc(NC(=O)[C@H]2c3ccccc3C(=O)N(CC(F)(F)F)[C@@H]2c2cccnc2)ccc1F` [(+) SJ-733, 4-Isoquinolinecarboxamide, N-(3-cyano-4-fluorophenyl)-1,2,3,4-tetrahydro-1-oxo-3-(3-pyridinyl)-2-(2,2,2-trifluoroethyl)-, (3S,4S)-, reference compound] were 145 nM, 11.4 µL/min/1e6 cells, “F = 75%”, 13.3 mL/min/kg and 7.7 h.
